Among the test systems are CAKI-1 renal; SK-OV-3 ovarian; UACC-62 melanoma; LOX IMVI melanoma; NCI-H226 lung; CCRF-CEM leukemia; HL-60(TB) leukemia; 786-0 renal; EKVX NSCLC; HT29 colon.
Common to all, as to test: NCI anticancer screen, dose series, 48 h

In PubChem BioAssay (NCI) one finds TGI and GI50 data, which are given here for eight compounds.

Several values for one entry are separate records, joined by “and”; a condition that tells them apart may be missing. Equal values may be shown once.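 Cells were grown in 96-well plates and exposed to each compound for 48 hours at five concentrations; endpoints were interpolated linearly between bracketing concentrations, or set to the highest concentration if not reached. Abbreviation: GI50, concentration required for 50% inhibition of growth. TGI: total growth inhibition.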

In the case of `OC(c1ccccn1)C1CNc2ccccc21` (stereo not given), the TGI with CAKI-1 renal, in the assay with SK-OV-3 ovarian, with UACC-62 melanoma, in the assay on LOX IMVI melanoma, with NCI-H226 lung and in the assay on CCRF-CEM leukemia was above 100 µM in each case. The TGI in the assay with HL-60(TB) leukemia, in the assay with 786-0 renal, in the assay with EKVX NSCLC and with HT29 colon was above 100 µM in each case.

In the case of `Cc1c(NC(=O)OC[C@@H]2COCCN2)cn2ncnc(Nc3ccc4c(cnn4Cc4cccc(F)c4)c3)c12`, the GI50 in the assay on CAKI-1 renal was > 10 µM and 1.36 µM; in the assay on SK-OV-3 ovarian it was 1.09 µM and 0.711 µM; in the assay on UACC-62 melanoma, > 10 µM and 4.82 µM; in the assay on LOX IMVI melanoma it was 5.8 µM and 5.39 µM; in the assay with NCI-H226 lung, > 10 µM and 11.3 µM; in the assay with CCRF-CEM leukemia it was > 10 µM and 11 µM. Besides, the GI50 in the assay with HL-60(TB) leukemia was 7.76 µM and 17.5 µM; in the assay on 786-0 renal, 8.46 µM and 6.1 µM; in the assay with EKVX NSCLC, 0.716 µM and 0.257 µM; in the assay on HT29 colon, 6.38 µM and 4.65 µM. The TGI in the assay with CAKI-1 renal is > 10 µM and 15.5 µM; in the assay with SK-OV-3 ovarian, > 10 µM and 16.6 µM; with UACC-62 melanoma it was > 10 µM and 18.7 µM; with LOX IMVI melanoma, > 10 µM and 19.4 µM; in the assay on NCI-H226 lung, > 10 µM and 35.6 µM; in the assay on CCRF-CEM leukemia, > 10 µM and 34.3 µM. Besides, the TGI in the assay on HL-60(TB) leukemia was > 10 µM and 37 µM; in the assay with 786-0 renal it was > 10 µM and 24.1 µM; with EKVX NSCLC, > 10 µM and 14.2 µM; with HT29 colon, > 10 µM and 16.9 µM.

In the case of `CN(C[C@@H]1COCCO1)S(=O)(=O)Nc1ccc2ccc3ncc(-c4cnn(C)c4)cc3c(=O)c2c1`, the GI50 with CAKI-1 renal was 1.94 µM; in the assay on SK-OV-3 ovarian it was 3.04 µM; in the assay with UACC-62 melanoma it was 3.29 µM; in the assay on LOX IMVI melanoma, 3.37 µM; with NCI-H226 lung, 2.62 µM; in the assay with CCRF-CEM leukemia it was 5.65 µM. Further, the GI50 in the assay on HL-60(TB) leukemia is 6.77 µM; in the assay on 786-0 renal, 6.04 µM; in the assay on EKVX NSCLC it was 19.1 µM; in the assay with HT29 colon, 19.7 µM. Moreover, the TGI is above 27.4 µM in the assay with CAKI-1 renal; above 100 µM with SK-OV-3 ovarian; above 100 µM in the assay on UACC-62 melanoma; above 100 µM in the assay with LOX IMVI melanoma; above 100 µM with NCI-H226 lung; above 100 µM with CCRF-CEM leukemia. Further, the TGI with HL-60(TB) leukemia, with 786-0 renal, in the assay on EKVX NSCLC and in the assay on HT29 colon was above 100 µM in each case.

For `CCOC(=O)c1cc2c(n1Cc1ccccc1)-c1oncc1CC2`, the GI50 in the assay on CAKI-1 renal was 3.24 µM; with SK-OV-3 ovarian, 7.07 µM; with UACC-62 melanoma it was 3.45 µM; with LOX IMVI melanoma it was 5.5 µM; with NCI-H226 lung it was 10.7 µM; in the assay with CCRF-CEM leukemia, 4.92 µM. Further, the GI50 in the assay on HL-60(TB) leukemia is 2.4 µM; in the assay on 786-0 renal, 7.51 µM; in the assay on EKVX NSCLC it was 5.65 µM; in the assay with HT29 colon, 3.23 µM. The TGI was 18.8 µM in the assay with CAKI-1 renal; 93.1 µM with SK-OV-3 ovarian; 17.2 µM with UACC-62 melanoma; 25.4 µM in the assay on LOX IMVI melanoma; above 100 µM in the assay with NCI-H226 lung; above 100 µM in the assay on CCRF-CEM leukemia. The TGI is 6.59 µM with HL-60(TB) leukemia, 34.2 µM with 786-0 renal, 49.5 µM with EKVX NSCLC and 14.4 µM with HT29 colon.

Turning to `CCc1nc(N)nc(N)c1-c1ccc(NCCc2ccccc2)c([N+](=O)[O-])c1`, the TGI was above 71.3 µM in the assay with CAKI-1 renal; above 74.6 µM in the assay with SK-OV-3 ovarian; 15.8 µM in the assay on UACC-62 melanoma; above 100 µM with LOX IMVI melanoma; above 69.7 µM with NCI-H226 lung; above 61.2 µM in the assay with CCRF-CEM leukemia. Moreover, the TGI in the assay on HL-60(TB) leukemia is 6.77 µM; in the assay with 786-0 renal, 17 µM; with EKVX NSCLC, 54 µM; in the assay with HT29 colon, 22.4 µM.

In the case of `Cc1ccc2[nH]c3c(ncc4[nH]c5ccccc5c43)c2c1`, the TGI in the assay with CAKI-1 renal was 31.6 µM; in the assay with SK-OV-3 ovarian, 25.2 µM; with UACC-62 melanoma, 31.7 µM; in the assay with LOX IMVI melanoma, 31.6 µM; with NCI-H226 lung it was 30.4 µM; with CCRF-CEM leukemia, 35.9 µM. Besides, the TGI with HL-60(TB) leukemia came out at 36.3 µM; in the assay with 786-0 renal it was 31.5 µM; in the assay with EKVX NSCLC, 29.3 µM; with HT29 colon it was 24 µM.

For `O=C(c1ccccc1)c1nc2ccc(C(F)(F)F)cc2[n+]([O-])c1C(F)(F)F`, the GI50 in the assay with CAKI-1 renal is 30.4 µM; in the assay with SK-OV-3 ovarian, 27.4 µM; with UACC-62 melanoma, 33.7 µM; in the assay with LOX IMVI melanoma, 33.6 µM; in the assay with NCI-H226 lung, 59 µM; with CCRF-CEM leukemia it was 27 µM. In addition, the GI50 in the assay on HL-60(TB) leukemia was 19 µM; with 786-0 renal, 48 µM; in the assay on EKVX NSCLC, 21.1 µM; with HT29 colon it was 48.6 µM. In addition, the TGI in the assay on CAKI-1 renal, with SK-OV-3 ovarian, in the assay with UACC-62 melanoma, in the assay on LOX IMVI melanoma, with NCI-H226 lung and with CCRF-CEM leukemia was above 100 µM throughout. In addition, the TGI in the assay with HL-60(TB) leukemia was 52.5 µM; in the assay on 786-0 renal, above 100 µM; in the assay with EKVX NSCLC it was above 100 µM; in the assay with HT29 colon it was above 100 µM.

As for `O=C(CC(=O)C1CCOC1=O)C(=O)Nc1ccc(Cl)cc1Cl` (stereo not given), the TGI with CAKI-1 renal, with SK-OV-3 ovarian, with UACC-62 melanoma, in the assay with LOX IMVI melanoma, in the assay with NCI-H226 lung and with CCRF-CEM leukemia was above 100 µM in each case. Further, the TGI in the assay with HL-60(TB) leukemia, with 786-0 renal, in the assay on EKVX NSCLC and in the assay on HT29 colon was above 100 µM each time.
